Experimental data reported in US6054435A, “6-O-substituted macrolides having antibacterial activity” (priority 1999, dated 2000).
Values after ≈ are worked out from the molar mass of the structure shown.

Columns and labels:
Test in all cases: in vitro antibacterial activity (MIC), agar dilution
Type in all cases: cell-based
[1] = test system: Streptococcus pyogenes PIU 2548; conditions: organism code NN; BHI agar, 35-37° C., 20 to 24 hours; unit assumed
Outline: (§1)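 Antibacterial MIC determined by agar dilution in BHI agar with twelve successive concentrations; controls comprised compound-free plates and a same-class reference antibiotic. MIC: lowest concentration giving no growth, slight haze or sparsely isolated colonies.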

[2] = test system: Streptococcus Pneumonia GYR 1171; conditions: organism code YY; BHI agar, 35-37° C., 20 to 24 hours; unit assumed
Outline: as §1

[3] = test system: Streptococcus pyogenes EES61; conditions: organism code LL; BHI agar, 35-37° C., 20 to 24 hours; unit assumed
Outline: as §1

[4] = test system: Streptococcus pyogenes 930; conditions: organism code MM; BHI agar, 35-37° C., 20 to 24 hours; unit assumed
Outline: as §1

[5] = test system: Streptococcus agalactiae CMX 508; conditions: organism code KK; BHI agar, 35-37° C., 20 to 24 hours; unit assumed
Outline: as §1

[6] = test system: Streptococcus Pneumonia 5979; conditions: organism code ZZ; BHI agar, 35-37° C., 20 to 24 hours; unit assumed
Outline: as §1

[7] = test system: Haemophilis Influenzae DILL AMP R; conditions: organism code WW; BHI agar, 35-37° C., 20 to 24 hours; unit assumed
Outline: as §1

[8] = test system: Staphylococcus aureus ATCC 6538P; conditions: organism code AA; BHI agar, 35-37° C., 20 to 24 hours; unit assumed
Outline: as §1

[9] = test system: Staphylococcus aureus A5177; conditions: organism code BB; BHI agar, 35-37° C., 20 to 24 hours; unit assumed
Outline: as §1

[10] = test system: Micrococcus luteus ATCC 4698; conditions: organism code PP; BHI agar, 35-37° C., 20 to 24 hours; unit assumed
Outline: (§2)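 Agar dilution in BHI agar, twelve successive compound dilutions. Inoculum 1:100, or 1:10 for slow-growing strains (e.g. Streptococcus), replicator-spotted. Read by eye; MIC = lowest concentration with no growth, slight haze or sparsely isolated colonies relative to growth control.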

[11] = test system: Streptococcus Pneumonia ATCC6303; conditions: organism code XX; BHI agar, 35-37° C., 20 to 24 hours; unit assumed
Outline: as §1

[12] = test system: Staphylococcus aureus A-5278; conditions: organism code CC; BHI agar, 35-37° C., 20 to 24 hours; unit assumed
Outline: as §1

[13] = test system: Staphylococcus epidermidis 3519; conditions: organism code HH; BHI agar, 35-37° C., 20 to 24 hours; unit assumed
Outline: as §1

[14] = test system: Enterococcus faecium ATCC 8043; conditions: organism code II; BHI agar, 35-37° C., 20 to 24 hours; unit assumed
Outline: as §1

[15] = test system: Streptococcus bovis A-5169; conditions: organism code JJ; BHI agar, 35-37° C., 20 to 24 hours; unit assumed
Outline: as §1

[16] = test system: Staphylococcus aureus CMX 642A; conditions: organism code DD; BHI agar, 35-37° C., 20 to 24 hours; unit assumed
Outline: as §1

Candida albicans CCH 442 = conditions: organism code TT; BHI agar, 35-37° C., 20 to 24 hours; unit assumed
Outline: as §1

[17] = test system: Mycobacterium smegmatis ATCC 114; conditions: organism code UU; BHI agar, 35-37° C., 20 to 24 hours; unit assumed
Outline: as §1

[18] = test system: Micrococcus luteus ATCC 9341; conditions: organism code OO; BHI agar, 35-37° C., 20 to 24 hours; unit assumed
Outline: as §2

[19] = test system: Streptococcus Pneumonia 5649; conditions: organism code ZZA; BHI agar, 35-37° C., 20 to 24 hours; unit assumed
Outline: as §1

Escherichia coli JUHL = conditions: organism code QQ; BHI agar, 35-37° C., 20 to 24 hours; unit assumed
Outline: as §1

[20] = test system: Nocardia Asteroides ATCC9970; conditions: organism code VV; BHI agar, 35-37° C., 20 to 24 hours; unit assumed
Outline: as §1

Escherichia coli DC-2 = conditions: organism code SS; BHI agar, 35-37° C., 20 to 24 hours; unit assumed
Outline: as §1

Escherichia coli SS = conditions: organism code RR; BHI agar, 35-37° C., 20 to 24 hours; unit assumed
Outline: as §1

[21] = test system: Staphylococcus aureus 1775; conditions: organism code GG; BHI agar, 35-37° C., 20 to 24 hours; unit assumed
Outline: as §1

[22] = test system: Staphylococcus aureus CMX 553; conditions: organism code FF; BHI agar, 35-37° C., 20 to 24 hours; unit assumed
Outline: as §1

[23] = test system: Staphylococcus aureus NCTC10649M; conditions: organism code EE; BHI agar, 35-37° C., 20 to 24 hours; unit assumed
Outline: as §1

SMILES	MIC [1] [µg/mL]	MIC [2] [ng/mL]	MIC [3] [µg/mL]	MIC [4] [µg/mL]	MIC [5] [µg/mL]	MIC [6] [µg/mL]	MIC [7] [µg/mL]	MIC [8] [µg/mL]	MIC [9] [µg/mL]	MIC [10] [µg/mL]	MIC [11] [ng/mL]	MIC [12] [µg/mL]	MIC [13] [µg/mL]	MIC [14] [µg/mL]	MIC [15] [µg/mL]	MIC [16] [µg/mL]	MIC (Candida albicans CCH 442) [µg/mL]	MIC [17] [µg/mL]	MIC [18] [µg/mL]	MIC [19] [µg/mL]	other results
CC[C@H]1OC(=O)[C@H](C)C(=O)[C@H](C)[C@@H](O[C@@H]2O[C@H](C)C[C@H](N(C)C)[C@H]2O)[C@](C)(OC/C=C/c2cncc(-c3cncs3)c2)C[C@@H](C)C(=O)[C@H](C)[C@H]2NC(=O)O[C@@]21C [Example 52]	0.1 (≈ 0.125 µM)	≤ 4	0.02 (≈ 0.025 µM)	100 (≈ 125 µM)	≤ 0.005	> 128	2 (≈ 2.5 µM)	0.05 (≈ 0.0626 µM)	0.05 (≈ 0.0626 µM)	0.2 (≈ 0.25 µM)	≤ 4	> 100	0.05 (≈ 0.0626 µM)	0.01 (≈ 0.0125 µM)	0.01 (≈ 0.0125 µM)	0.05 (≈ 0.0626 µM)	> 100	1.56 (≈ 1.95 µM)	0.01 (≈ 0.0125 µM)	0.25 (≈ 0.313 µM)	MIC (Escherichia coli JUHL): 100 µg/mL (≈ 125 µM); MIC [20]: 0.02 µg/mL (≈ 0.025 µM); MIC (Escherichia coli DC-2): 25 µg/mL (≈ 31.3 µM); MIC (Escherichia coli SS): 0.39 µg/mL (≈ 0.488 µM); MIC [21]: > 100 µg/mL; MIC [22]: 0.05 µg/mL (≈ 0.0626 µM); MIC [23]: 0.05 µg/mL (≈ 0.0626 µM)
CC[C@H]1OC(=O)[C@H](C)C(=O)[C@H](C)[C@@H](O[C@@H]2O[C@H](C)C[C@H](N(C)C)[C@H]2O)[C@](C)(OC/C=C/c2ccc(-c3ncccn3)s2)C[C@@H](C)C(=O)[C@H](C)[C@H]2NC(=O)O[C@@]21C [Example 61]	0.1 (≈ 0.125 µM)	15 (≈ 0.0188 µM)	0.01 (≈ 0.0125 µM)	50 (≈ 62.6 µM)	0.01 (≈ 0.0125 µM)	8 (≈ 10 µM)	8 (≈ 10 µM)	0.05 (≈ 0.0626 µM)	0.1 (≈ 0.125 µM)	0.05 (≈ 0.0626 µM)	15 (≈ 0.0188 µM)	> 100	0.1 (≈ 0.125 µM)	0.05 (≈ 0.0626 µM)	0.01 (≈ 0.0125 µM)	0.1 (≈ 0.125 µM)	> 100	0.39 (≈ 0.488 µM)	0.01 (≈ 0.0125 µM)	0.25 (≈ 0.313 µM)	MIC (Escherichia coli JUHL): 25 µg/mL (≈ 31.3 µM); MIC [20]: 0.05 µg/mL (≈ 0.0626 µM); MIC (Escherichia coli DC-2): 50 µg/mL (≈ 62.6 µM); MIC (Escherichia coli SS): 0.39 µg/mL (≈ 0.488 µM); MIC [21]: > 100 µg/mL; MIC [22]: 0.1 µg/mL (≈ 0.125 µM); MIC [23]: 0.1 µg/mL (≈ 0.125 µM)
CC[C@H]1OC(=O)[C@H](C)C(=O)[C@H](C)[C@@H](O[C@@H]2O[C@H](C)C[C@H](N(C)C)[C@H]2O)[C@](C)(OC/C=C/c2cnc(-c3cncnc3)s2)C[C@@H](C)C(=O)[C@H](C)[C@H]2NC(=O)O[C@@]21C [Example 59]	0.2 (≈ 0.25 µM)	≤ 4	0.01 (≈ 0.0125 µM)	6.2 (≈ 7.75 µM)	0.01 (≈ 0.0125 µM)	4 (≈ 5 µM)	4 (≈ 5 µM)	0.1 (≈ 0.125 µM)	0.1 (≈ 0.125 µM)	0.1 (≈ 0.125 µM)	≤ 4	> 100	0.1 (≈ 0.125 µM)	0.02 (≈ 0.025 µM)	≤ 0.005	0.1 (≈ 0.125 µM)	> 100	3.1 (≈ 3.88 µM)	0.01 (≈ 0.0125 µM)	0.5 (≈ 0.625 µM)	MIC (Escherichia coli JUHL): 50 µg/mL (≈ 62.5 µM); MIC [20]: 0.02 µg/mL (≈ 0.025 µM); MIC (Escherichia coli DC-2): 50 µg/mL (≈ 62.5 µM); MIC (Escherichia coli SS): 0.2 µg/mL (≈ 0.25 µM); MIC [21]: > 100 µg/mL; MIC [22]: 0.1 µg/mL (≈ 0.125 µM); MIC [23]: 0.1 µg/mL (≈ 0.125 µM)
CC[C@H]1OC(=O)[C@H](C)C(=O)[C@H](C)[C@@H](O[C@@H]2O[C@H](C)C[C@H](N(C)C)[C@H]2O)[C@](C)(OC/C=C/c2ccc(-c3cccnc3)s2)C[C@@H](C)C(=O)[C@H](C)[C@H]2NC(=O)O[C@@]21C [Example 68]	6.2 (≈ 7.77 µM)	≤ 4	0.05 (≈ 0.0627 µM)	> 100	0.02 (≈ 0.0251 µM)	0.125 (≈ 0.157 µM)	2 (≈ 2.51 µM)	0.2 (≈ 0.251 µM)	6.2 (≈ 7.77 µM)	0.39 (≈ 0.489 µM)	≤ 4	> 100	0.39 (≈ 0.489 µM)	0.05 (≈ 0.0627 µM)	0.02 (≈ 0.0251 µM)	0.39 (≈ 0.489 µM)	> 100	3.1 (≈ 3.88 µM)	0.02 (≈ 0.0251 µM)	0.125 (≈ 0.157 µM)	MIC (Escherichia coli JUHL): 100 µg/mL (≈ 125 µM); MIC [20]: 0.05 µg/mL (≈ 0.0627 µM); MIC (Escherichia coli DC-2): > 100 µg/mL; MIC (Escherichia coli SS): 0.39 µg/mL (≈ 0.489 µM); MIC [21]: > 100 µg/mL; MIC [22]: 0.39 µg/mL (≈ 0.489 µM); MIC [23]: 0.39 µg/mL (≈ 0.489 µM)
